# Measurements from patent US12364681B2, “Combined MAPK and NAMPT inhibition for treatment of neuron degeneration” (The Johns Hopkins University, priority 2021, dated 2025).
# Columns and labels:
# [1] = tested on: NAD+ pathway metabolites (NMN, NAD+, cADPR, Nam) in transected axons; test: Metabolite analysis of distal axons 8 hours post axotomy; type: cell-based
# Method: Axons were transected and treated with vehicle (DMSO), the NAMPT inhibitor FK866, or FK866+NaR. Axons were collected at 8 hours post axotomy for metabolite analysis. […] Statistically significant changes between treated and untreated transected axons were analyzed with one-way ANOVA and Holm-Šidák's multiple comparisons; *=p<0.05, **=p<0.01, ***=p<0.001, #=p<0.0001. Error bars indicate +/−1 SEM.
# Relative changes in protein-normalized levels of metabolites in distal axons were measured at 8 hours following transection and treatment at the time of injury with the MAPK inhibitor GNE-3511, the NAMPT inhibitor FK866 in combination with NaR, or with the three compounds together.
# [2] = tested on: axotomized murine DRG axons; test: Axonal degeneration (degeneration index) of transected axons; type: cell-based
# Method: (§1) The role of the DLK/LZK MAPK pathway in regulating NAD and SARM1 pathways of axonal degeneration was established. Its role in regulating levels of the NAD-synthesizing enzyme NMNAT2 after injury was explored by treating murine DRG axons with the DLK/LZK inhibitor GNE-3511 after axotomy.
# To assess the therapeutic potential of post-axotomy MAPK inhibition, axons were treated with GNE-3511 at different time points before or after axotomy (2 h pre-treatment, immediately after axotomy, 0 h, or 2 and 4 hours post-injury).
# Due to the different mechanism of action of MAPK and NAMPT inhibition, therapeutic synergy was further tested by treating axotomized axons with the MAPK inhibitor GNE at the time of injury and the NAMPT inhibitor FK866 at different time points (2, 4, 6 or 8 hours post injury).
# Transected axons were treated with the NAMPT inhibitor FK866 after injury and NaR was added concurrently or at 3, 6, 9, or 24 hours post axotomy. Statistical analysis of degeneration index was performed by two-way ANOVA for the effect of time (F(4,32)=62.77, p<0.0001), treatment (F(5,8)=17.05, p=0.0004), and their interactions (F(20,32)=16.82, p<0.0001) with Holm-Šidák's multiple comparisons. […] See FIG. 15 (error bars indicate +/−1 SEM).
# Transected axons were treated at the time of injury with the DLK inhibitor GNE-3511 or vehicle (DMSO) and with the combination of FK866/NaR either at the time of injury or with an 8-hour delay. […] Statistical analysis of degeneration index was performed by two-way ANOVA for the effect of time (F(2.143, 17.15)=49.43, p<0.0001), treatment (F(3,8)=9.58, p=0.005), and their interactions (F(18,48)=13.99, p<0.0001) with Holm-Šidák's multiple comparisons. […] See FIG. 16B (error bars indicate +/−1 SEM).
# [3] = tested on: retinal ganglion cells (RGCs); test: Impact acceleration (IA) TBI model: RGC survival, SNCG staining of retinal whole-mounts; type: in vivo, mice; conditions: intraperitoneal 60 mg/kg, treatment 21 days after IA; vehicle 1500 cells/mm2; p<0.05
# Source text: Experimental subjects and IA procedures Eight-week-old male C57BL/6 J wild-type mice and transgenic Dlk^fl/fl and Dlk^fl/flLzk^fl/fl mice were subjected to IA or sham injury. Male mice were chosen such as to avoid the confounding effects of sex hormones on injury outcomes. Wild-type mice and founders were purchased from Charles River Laboratories (Wilmington, MA). Animals were housed in a vivarium with a 12-h light/12-h dark cycle and given ad libitum access to food and water. All animal handling as well as surgical and postoperative procedures were carried out according to protocols approved by the Animal Care and Use Committee of the Johns Hopkins Medical Institutions.
# Impact acceleration injury was performed with height weight settings generating kinetic energy of 0.45-0.5 Jupon impact, essentially as described (FIG. 21). Immediately prior to injury, the cranium was exposed and a 5 mm-thick stainless-steel disc was glued onto the skull midway between bregma and lambda sutures. Surgical procedures and injury were performed under aseptic conditions with gas anesthesia (isoflurane:oxygen:nitrous oxide=1:33:66). Immediately after injury the disc was removed the skull was checked under the surgical microscope for skull fractures. The rare animals with skull fractures were excluded from further study because such events introduce injuries variables that cannot be easily controlled. […]
# [4] = in vivo; cited from earlier work
# [5] = tested on: JNK, SCG10, NMNAT2 and α-Spectrin in murine DRG axons; test: Western blot of distal axons after axotomy; type: cell-based
# Method: as §1
# Western blot analysis of distal axons was performed at 4 and 8 hours after transection and treatment with the DLK inhibitor GNE3511 or vehicle (DMSO).
# [6] = treatment immediately after axotomy
# [7] = GNE vs FK+NaR and vs FK+NaR+GNE
smiles,measurement,setting,value
O=C(/C=C/c1cccnc1)NCCCCC1CCN(C(=O)c2ccccc2)CC1 [FK866],NAD+ degrading activity (cADPR/NAD+) relative to vehicle,[1],suppressed the NAD+ degrading activity
same,NAD+/NMN ratio compared to vehicle,[1],increases
same,NMN/Nam ratio compared to vehicle,[1],reductions
same,cADPR levels relative to vehicle,[1],only the combined treatment suppressed cADPR levels
same,NAD+ levels compared to vehicle treated transected axons,[1]; treatment at time of injury,protects NAD+ levels
same,NMN levels compared to vehicle treated transected axons,[1]; treatment at time of injury,suppressed NMN
same,protection from axonal degeneration,"[2]; in the absence of GNE-3511, added 2, 4, 6 or 8 hours post injury",provided protection especially when added at 2 hours
same,protection from axonal degeneration,"[2]; with GNE-3511 at the time of injury, FK-866 added 2, 4, 6 or 8 hours post injury","enhanced at 2, 4 and 6 hours post injury"
CCN(CC)CCNC(=O)c1c(C)[nH]c(/C=C2\C(=O)Nc3ccc(F)cc32)c1C [sunitinib],number of surviving RGCs,[3],~2300 cells/mm2
same,CNS penetration,[4],penetrates the CNS
"NC(=O)c1ccc[n+]([C@@H]2O[C@H](CO)[C@@H](O)[C@H]2O)c1 [NaR, nicotinamide riboside]",axon protection (degeneration index) compared to FK866 alone,"[2]; NaR added 3, 6 or 9 hours post-axotomy in the presence of FK866, up to 4 days post-injury, p<0.0001",significantly protected axons
same,axon protection (degeneration index) compared to FK866 alone,[2]; NaR added at 24 hours in the presence of FK866,no additive effect
same,delay of NaR supplementation after axotomy with minimal and/or no loss of efficacy in suppressing axon fragmentation,[2]; in the presence of FK866 given after injury,up to 9 hours
N#Cc1ccnc(Nc2cc(C3CCN(C4COC4)CC3)cc(N3CCC(F)(F)C3)n2)c1 [GNE-3511],injury associated degradation of SCG10,[5]; 4 and 8 hours after transection,suppressed the injury associated degradation of SCG10
same,phosphorylation of JNK,"[5]; 4 hours after transection, vs vehicle (DMSO), n=3",suppressed phosphorylation of JNK
same,injury associated degradation of spectrin (p150 fragment to total spectrin),[5]; 8 hours after transection,suppressed
same,degradation of NMNAT2 between 4 and 8 hours post-axotomy,[5]; significantly degraded in vehicle treated axons,not in the presence of GNE
same,calpain-mediated degradation of α-Spectrin,[5]; [6],ameliorated the calpain-mediated degradation
same,degradation of NMNAT2,[5]; [6],reduced the degradation
same,phosphorylation of SCG10,[5]; [6],reduced phosphorylation
same,phosphorylation of the downstream JNKs,[5]; [6],reduced phosphorylation
same,"cADPR/NAD+ ratio, difference vs FK+NaR",[1],significant differences
same,"NAD+/NMN ratio, difference between treatment groups",[1]; [7],significant differences
same,"Nam/NAD+ ratio, difference between treatment groups",[1]; [7],significant differences
same,NAD+ levels compared to FK+NaR or the triple combination,[1]; treatment at time of injury,greater protection of NAD+ levels
same,protection from axonal degeneration,[2]; applied before (2 h pre-treatment) or immediately following injury (0 h),Significant protection
same,protection from axonal degeneration,[2]; more delayed regimes (2 and 4 hours post-injury),lesser protection
